Patent publication US20240425479A1, “HALO-SUBSTITUTED AMINO AZA-HETEROARYL COMPOUNDS AS INHIBITORS OF THE HAEMATOPOIETIC PROGENITOR KINASE 1 (HPK1)” (priority 2021, published 2024)

What follows are compounds tested against T1, Recombinant (1-346) HPK1 (h) (Homo sapiens, UniProt Q92918) (assay: HPK1 human STE kinase enzymatic radiometric assay). Settings: read-out: HPK1 IC50 nM Range.
T1 construct: Recombinant (1-346) HPK1 (h) is incubated with 8 mM MOPS pH 7.0
T1 sequence (Q92918 1-346): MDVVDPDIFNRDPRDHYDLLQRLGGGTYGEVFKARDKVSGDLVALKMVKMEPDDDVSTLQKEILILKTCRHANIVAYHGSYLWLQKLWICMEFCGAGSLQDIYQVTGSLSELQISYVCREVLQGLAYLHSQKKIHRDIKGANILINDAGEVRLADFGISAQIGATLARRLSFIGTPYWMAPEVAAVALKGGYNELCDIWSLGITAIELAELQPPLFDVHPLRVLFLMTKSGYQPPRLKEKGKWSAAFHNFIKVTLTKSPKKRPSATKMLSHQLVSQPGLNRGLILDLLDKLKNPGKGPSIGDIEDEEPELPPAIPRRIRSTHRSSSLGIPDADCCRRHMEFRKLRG
Type: biochemical
In short: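 Compounds in 3-fold, 9-point serial dilution; kinase (residues 1-346) phosphorylates myelin basic protein (0.33 mg/mL) using [gamma-33P]-ATP at pH 7.0 (MOPS, EDTA, Mg acetate) for 40 min, room temperature. Acid-quenched mixture filtered onto P30 mats; incorporated radioactivity read by scintillation counting.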
With `COc1ccc(-c2nc(-c3ccc4c(=O)[nH]cc(F)c4c3)c(N)nc2F)cc1C(C)N(C)C` (centres unmarked) [Example I-291, 6-(3-amino-6-(3-(1-(dimethylamino)ethyl)-4-methoxyphenyl)-5-fluoropyrazin-2-yl)-4-fluoroisoquinolin-1(2H)-one] the IC50 was 0.1 to 10 nM.
`CCN(C)Cc1c(N2CCOCC2)ccc(-c2nc(-c3cc(F)c4c(c3)CCNC4=O)c(N)nc2F)c1F` [Example I-247, 6-(3-amino-6-(3-((ethyl(methyl)amino)methyl)-2-fluoro-4-morpholinophenyl)-5-fluoropyrazin-2-yl)-8-fluoro-3,4-dihydroisoquinolin-1(2H)-one] gave an IC50 of 11 to 100 nM.
Work on `C[C@H]1CN(c2ccc(-c3nc(-c4cc(F)c5c(c4)CCNC5=O)c(N)nc3F)cc2CN(C)C)CCO1` [Example I-213, (S)-6-(3-amino-6-(3-((dimethylamino)methyl)-4-(2-methylmorpholino)phenyl)-5-fluoropyrazin-2-yl)-8-fluoro-3,4-dihydroisoquinolin-1(2H)-one] yielded an IC50 of 0.1 to 10 nM.
`CC(C)N1CCN(c2ccc(-c3nc(-c4cc(F)c5c(=O)[nH]cc(Cl)c5c4)c(N)nc3F)cc2)CC1` [Example I-90, 6-(3-amino-5-fluoro-6-(4-(4-isopropylpiperazin-1-yl)phenyl)pyrazin-2-yl)-4-chloro-8-fluoroisoquinolin-1(2H)-one] was tested, and the IC50 was 0.1 to 10 nM.
In the case of `COC1CCN(Cc2cc(-c3nc(-c4ccc5c(c4)CCNC5=O)c(N)nc3F)ccc2C2CCOCC2)CC1` [Example I-131, 6-(3-amino-5-fluoro-6-(3-((4-methoxypiperidin-1-yl)methyl)-4-(tetrahydro-2H-pyran-4-yl)phenyl)pyrazin-2-yl)-3,4-dihydroisoquinolin-1(2H)-one], the IC50 is reported as 11 to 100 nM.
For `Nc1nc(F)c(-c2ccc(N3CCOCC3)cn2)nc1-c1ccc2c(c1)CCNC2=O` [Example I-201, 6-(3-amino-5-fluoro-6-(5-morpholinopyridin-2-yl)pyrazin-2-yl)-3,4-dihydroisoquinolin-1(2H)-one], the IC50 was 11 to 100 nM.
`CC1NC(=O)c2c(F)cc(-c3nc(-c4ccc([C@]56C[C@H]5CN(C)C6)cc4)c(F)nc3N)cc2C1(F)F` (stereo partly drawn) [Example I-135, 6-(3-amino-5-fluoro-6-(4-((1S,5R)-3-methyl-3-azabicyclo[3.1.0]hexan-1-yl)phenyl)pyrazin-2-yl)-4,4,8-trifluoro-3-methyl-3,4-dihydroisoquinolin-1(2H)-one] showed an IC50 of 11 to 100 nM.
For `Nc1nc(F)c(-c2ccc(N3CCOCC3)c(CN3CCCC3)c2)nc1-c1cc(F)c2c(c1)CCNC2=O` [Example I-112, 6-(3-amino-5-fluoro-6-(4-morpholino-3-(pyrrolidin-1-ylmethyl)phenyl)pyrazin-2-yl)-8-fluoro-3,4-dihydroisoquinolin-1(2H)-one], the IC50 was 0.1 to 10 nM.
With `Cc1[nH]c(=O)c2ccc(-c3nc(-c4ccc(N5CCN(CC6CC6)CC5)cc4)c(F)nc3N)cc2c1F` [Example I-106, 6-(3-amino-6-(4-(4-(cyclopropylmethyl)piperazin-1-yl)phenyl)-5-fluoropyrazin-2-yl)-4-fluoro-3-methylisoquinolin-1(2H)-one] the IC50 was 0.1 to 10 nM.
`CN(C)Cc1cc(-c2nc(-c3ccc4c(=O)[nH]cc(F)c4c3)c(N)nc2F)ccc1OC(F)F` [Example I-270, 6-(3-amino-6-(4-(difluoromethoxy)-3-((dimethylamino)methyl)phenyl)-5-fluoropyrazin-2-yl)-4-fluoroisoquinolin-1(2H)-one] was tested, and the IC50 was 0.1 to 10 nM.
`CN(C)Cc1cc(-c2nc(-c3ccc4c(=O)[nH]cc(F)c4c3)c(N)nc2F)cc(F)c1N1CCOCC1` [Example I-265, 6-(3-amino-6-(3-((dimethylamino)methyl)-5-fluoro-4-morpholinophenyl)-5-fluoropyrazin-2-yl)-4-fluoroisoquinolin-1(2H)-one] was tested, and the IC50 was 0.1 to 10 nM.
